The assay addresses Envelope glycoprotein gp160 (Human immunodeficiency virus 1, UniProt Q6QLK5). Description: inhibitors of HIV fusion peptide binding, primary screen, biochemical, uHTS, fluorescence dequenching (AID 1986).

We go through 1 compound from ChEMBL document CHEMBL1201862, “PubChem BioAssay data set” (2004).

Activity calls are given as the source filed them. Rule as the data show it: actives have a measured IC50 and inactives only a lower limit.

Chain of Envelope glycoprotein gp160 (Q6QLK5 whole entry, the tested form may be a part): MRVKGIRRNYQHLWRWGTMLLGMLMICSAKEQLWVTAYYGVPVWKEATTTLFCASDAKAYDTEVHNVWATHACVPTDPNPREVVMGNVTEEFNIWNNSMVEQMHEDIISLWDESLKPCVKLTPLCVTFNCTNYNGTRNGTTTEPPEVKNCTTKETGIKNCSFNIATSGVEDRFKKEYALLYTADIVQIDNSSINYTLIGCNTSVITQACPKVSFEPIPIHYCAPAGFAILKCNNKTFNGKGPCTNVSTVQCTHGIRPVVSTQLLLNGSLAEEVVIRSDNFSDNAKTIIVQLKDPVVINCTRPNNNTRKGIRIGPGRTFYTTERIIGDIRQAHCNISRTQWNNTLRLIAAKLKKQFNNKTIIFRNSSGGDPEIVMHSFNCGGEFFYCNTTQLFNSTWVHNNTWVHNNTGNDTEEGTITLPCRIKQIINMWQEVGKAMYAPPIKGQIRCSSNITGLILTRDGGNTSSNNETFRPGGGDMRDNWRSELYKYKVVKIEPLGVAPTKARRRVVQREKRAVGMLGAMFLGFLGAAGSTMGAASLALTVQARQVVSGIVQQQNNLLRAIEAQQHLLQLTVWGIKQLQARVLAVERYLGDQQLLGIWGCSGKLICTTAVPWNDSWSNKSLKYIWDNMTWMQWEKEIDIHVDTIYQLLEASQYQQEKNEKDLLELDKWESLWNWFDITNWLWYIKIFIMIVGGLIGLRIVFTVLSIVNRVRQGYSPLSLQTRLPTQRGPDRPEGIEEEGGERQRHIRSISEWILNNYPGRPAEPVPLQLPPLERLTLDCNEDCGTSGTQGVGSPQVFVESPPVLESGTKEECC

In general, IC50 refers to the concentration needed to halve the response being measured. As for `O=S(=O)(Nc1nc(-c2sccc2Cl)cs1)c1cc(Cl)ccc1Cl`, the IC50 is 8.21 µM (active).
